Assay results published in patent EP4003298B1 (Offhealth S.p.A., priority 2019, dated 2021).

Experiments:
IL-1α = IL-1α release ELISA on SLS-irritated reconstructed human epidermis; assay type: cell-based; settings: positive control SLS 0.25% only
Protocol: The assay was performed in two replicates.
In this study IL-1α was determined in the culture medium of treated and untreated epidermis, using a direct ELIS assay (enzyme-linked immuno-absorbent assay). The colorimetric signal is directly proportional to the amount of cytokine in the culture medium. The samples are read at 450 nm. The detection limit is less than 10 pg/ml.
Cytokine concentration is determined using a standard curve. The inhibition of IL-1α release was determined as: % of IL-1α inhibition: 100−(pg/ml IL−1α released from irritated; samples/pg/ml IL−1α positive control)*100 [formula]

[1] = system: reconstructed human epidermis; settings: 24 h
Protocol: The assay included a prime MTT assay at the end of the incubation: cell survival assay using the reconstructed in vitro 3D artificial human epidermis to assess the cytotoxic potential of the sample.
The in vitro test systems used consist of an artificial three-dimensional system of the human epidermis. A reconstructed model of artificial human skin was prepared comprising normal human epidermal keratinocytes, which was grown as an integrated three-dimensional cell culture model, perfectly mimicking human skin in vitro.
The epidermis was pre-treated for 60 minutes with 0.25% SLS and was obtained in order to induce the synthesis and release of IL-1α. Later 30 µl of the formulation object of the invention was applied on two portions of the epidermis in two replicates, and the exposure was carried out for 24 hours at 37°C, 5% C02. […]
The epidermal units are treated with 1 mg of MD (3-4,5-dimethyl-thiazol-2-yl)-2,5-diphenyl-tetrazolium bromide) solution for 3 hours at 37°C. The solution is then removed and replaced with isopropanol, with a further 2 hours of incubation at room temperature; 2 aliquots of each sample are transferred to a 96-well plate for reading. The absorbance is read at the 570 nm wavelength with a colorimeter (Tecan Sunrise remote model) provided with a microplate reader. […]

For `CCCCCCCCCCCCOS(=O)(=O)[O-].[Na+]` [SLS, sodium lauryl sulfate], the IL-1α pg/ml average (IL-1α; 6h) was 79.17 pg/mL, the IL-1α pg/ml average (IL-1α; 24h) was 233.86 pg/mL and the “% Average cell viability (ds)” value [1] was 65.79 (0.45) %.
